Test results from US6903052B2, “Nematicidal compositions and methods” (Divergence, Inc., priority 2002, dated 2005).

Experiments:
C. elegans [1] = test: Nematicidal activity of single fatty acid methyl ester emulsions against Caenorhabditis elegans (Example 4); assay type: cell-based
Method: Mixed stage Caenorhabditis elegans were washed off plates seeded with OP50 bacteria using M9 solution. 250 μl of the M9 solution, which contained about 50 worms, was pipetted into each well of a 24-well plate.
(§1) Fatty acid methyl ester emulsions were prepared following the teachings of Kim et al (U.S. Pat. No. 5,698,592). Briefly, 1 ml 1% stock solution emulsions were prepared by mixing 10 μl of fatty acid methyl ester with 20 μl of the surfactant Igepal CO 630 in a 1.5 ml eppendorf tube. After careful mixing of fatty acid and Igepal CO 630, 850 μl of ddH20 was added and mixed by gentle pipetting until a homogeneous solution was obtained. Finally, 120 μl of pure isopropanol was added and mixed by gentle pipetting. This stock solution was then used to produce various fatty acid methyl ester dilution emulsions in 24-well plate assays.
To each well, fatty acid emulsions or control emulsions were added and rapidly mixed by swirling. Nematode viability was scored by visual observation and motility assays at various time points 24 hours following addition of emulsions or controls. The fatty acid emulsions tested were methyl esters of nonanoic (pelargonic) acid, ricinoleic acid, vernolic acid, linoleic acid, oleic acid, and control emulsions lacking fatty acids.

M. javanica [2] = test: Nematicidal activity of fatty acid methyl ester emulsions against root knot nematode J2 larvae (Example 6); assay type: cell-based, Meloidogyne javanica; settings: 0.1% emulsion; 48 hours incubation, counted about 24 hours after transfer to plates
Method: as §1
(§2) Meloidogyne incognita and javanica were prepared from tomato roots. The roots were bleached and the debris was separated from the J2 larvae and eggs by filtration followed by sucrose density gradient centrifugation. Eggs were hatched over 4 days at 15° C. and the J2 larvae were collected by passage though a filter, followed by centrifugation.
(§3) Nematodes and emulsions were incubated with shaking at room temperature for 48 hours. The contents of each well were transferred to a small spot on individual NGM plates lacking bacteria. About 24 hours after the transfer to plates, worms on and off the inoculation spot were counted as not viable or viable, respectively. Worms were considered viable if they had crawled away from the inoculation spot, or if they were moving. Worms were considered non-viable if they remained at the inoculation spot.

M. incognita [3] = test: as above; assay type: cell-based, Meloidogyne incognita; settings: 0.1% emulsion; 48 hours incubation, counted about 24 hours after transfer to plates
Method: as §1, §2, §3

[4] = tested on: root knot nematodes (Meloidogyne spp.); test: Nematicidal activity against root knot nematodes, summary statement; assay type: cell-based; settings: concentration of 0.1%
Method: as §2, §3

tomato seedlings = test: Phytotoxicity evaluation on tomato seedlings; assay type: in vivo; settings: for Phytotoxic effect on tomato seedlings: 1% emulsion
Method: Sterilized tomato seeds were germinated in magenta jars containing Gamborg's agar media. After two weeks of growth, seedlings were treated with 250 μl of 1% fatty acid methyl ester emulsion (nonanoic acid, ricinoleic acid, ricinelaidic acid, oleic acid, or a control emulsion lacking any fatty acid), applied directly to the stem-media interface. Tomato seedlings were scored at various times after application of emulsions.

C. elegans [5] = test: Nematicidal activity of fatty acid methyl ester emulsions, spectrum (Example 8); assay type: cell-based, Caenorhabditis elegans; settings: C. elegans mixed stage
Method: (§4) Briefly, the indicated fatty acid emulsions were added and rapidly mixed by swirling. Nematode viability was scored by visual observation and motility assays 24 hours following addition of emulsions (48 hours for plant parasitic nematodes Meloidogyne and Heterodera species). The fatty acid emulsions tested were methyl esters of nonanoic (pelargonic) acid, ricinelaidic acid, ricinoleic acid, vernolic acid, linoleic acid, and oleic acid. […] Results shown are mean % values obtained from multiple independent experiments
(§5) The Caenorhabiditis elegans were mixed stage populations. Similar effects seen on several other free-living nematode species. The Parastrongyloides trichosuri (parasite of Australian bushtail possum) were dauer-like infective 3rd stage larva. Similar effects are also seen against free-living stages. The Meloidogyne incognita and Meloidogyne javanica (root knot nematode) were 2nd stage juveniles (dauer-like infective stage). The Heterodera glycines (soybean cyst nematode) were 2nd stage juveniles (dauer-like infective stage). Finally, the Pratylenchus scribneri (corn lesion nematode) were mixed stage populations.

M. incognita [6] = test: as above; assay type: cell-based, Meloidogyne incognita; settings: M. incognita 2nd stage juveniles, scored at 48 hours
Method: as §4, §5

M. javanica [7] = test: as above; assay type: cell-based, Meloidogyne javanica; settings: M. javanica 2nd stage juveniles, scored at 48 hours
Method: as §4, §5

H. glycines = test: as above; assay type: cell-based, Heterodera glycines; settings: H. glycines 2nd stage juveniles, scored at 48 hours
Method: as §4, §5

P. scribneri = test: as above; assay type: cell-based, Pratylenchus scribneri; settings: P. scribneri mixed stage
Method: as §4, §5

C. elegans [8] = test: Nematicidal activity of emulsions made with Tween-20 (replacing Igepal CO 630) against C. elegans; assay type: cell-based, Caenorhabditis elegans; settings: Tween-20 emulsion
Method: Some nematodes assayed as described in Example 9 lacked tolerance to emulsions made with the surfactant Igepal CO 630. For this reason some assays were repeated with Tween-20-based emulsions.
Briefly, 1 ml 1% stock solution emulsions were prepared by mixing 10 μl of fatty acid methyl ester with 20 μl of the surfactant Tween-20 in a 1.5 ml eppendorf tube. After careful mixing of fatty acid and Tween-20, 850 μl of ddH20 was added and mixed by gentle pipetting until a homogeneous solution was obtained. Finally, 120 μl of pure isopropanol was added and mixed by gentle pipetting. This stock solution was then used to produce various fatty acid methyl ester dilution emulsions in 24-well plate assays.

P. trichosuri = test: Nematicidal activity of fatty acid methyl ester emulsions, spectrum (Example 8); assay type: cell-based, Parastrongyloides trichosuri; settings: P. trichosuri infective 3rd stage larva
Method: as §4, §5

B. malayi = test: Nematicidal activity of tween-based emulsions against microfilarial nematodes; assay type: cell-based, Brugia malayi
Method: To each well, tween-based fatty acid emulsions were added and rapidly mixed by swirling. Nematode microfilaria viability was scored by visual observation of motility at 24 and 48 hours following addition of emulsions. The fatty acid emulsions tested were methyl esters of ricinoleic acid, vernolic acid, ricinelaidic acid, oleic acid, and control emulsions lacking fatty acids. The results of this study are presented in Table 7 as the percentage of non-motile microfilaria 24 hours after inoculation and in Table 8 as the percentage of non-motile microfilaria 48 hours after inoculation

CCCCCCCCC(=O)OC [Nonanoic (C9-methyl ester), pelargonic acid methyl ester, reference compound]
Percentage of Worm Death (C. elegans [1]; 0.003% emulsion, 1 hr): 50%
Percentage of Worm Death (C. elegans [1]; 0.003% emulsion, 6 hr): 50%
Percentage of Worm Death (C. elegans [1]; 0.003% emulsion, 24 hr): 50%
Percentage of Worm Death (C. elegans [1]; 0.1% emulsion, 1 hr): 100%
Percentage of Worm Death (C. elegans [1]; 0.1% emulsion, 6 hr): 100%
Percentage of Worm Death (C. elegans [1]; 0.1% emulsion, 24 hr): 100%
Nematicidal activity (in words) (C. elegans [1]; concentration of 0.1%): strongly nematicidal
Onset of effect on nematode movement (in words) (C. elegans [1]; emulsion, C. elegans): almost immediate cessation of nematode movement and subsequent death
M. javanica (% not viable) (M. javanica [2]): 100%
M. incognita (% not viable) (M. incognita [3]): 100%
Nematicidal activity (in words) [4]: significant nematicidal activity
Phytotoxic effect on tomato seedlings (tomato seedlings; within 18 hours of application): distinct loss of turgor pressure (wilting phenotype)
Phytotoxic effect on tomato seedlings (tomato seedlings; within 24 hours): almost entirely bleached to a pale white color and had nearly totally collapsed
Visible effects on tomato seedlings (tomato seedlings; 250 μl of 1% emulsion applied to stem-media interface of two-week seedlings): showed obvious effects on the tomatoes
% Worm Death (24 hr) (C. elegans [5]; 0.001% solution): 30%
% Worm Death (24 hr) (C. elegans [5]; 0.01% solution): 100%
% Worm Death (24 hr) (C. elegans [5]; 0.1% solution): 100%
% Worm Death (24 hr) (M. incognita [6]; 0.1% solution): 100%
% Worm Death (48 hr) (M. javanica [7]; 0.1% solution): 100%
% Worm Death (24 hr) (H. glycines; 0.01% solution): >95%
% Worm Death (24 hr) (H. glycines; 0.1% solution): 100%
% Worm Death (24 hr) (P. scribneri; 0.01% solution): <20%
% Worm Death (24 hr) (P. scribneri; 0.1% solution): <20%
% Worm Death (24 hr) (C. elegans [8]; 0.001% solution): 30%
% Worm Death (24 hr) (C. elegans [8]; 0.01% solution): 100%
% Worm Death (24 hr) (C. elegans [8]; 0.1% solution): 100%

CCCCC[C@H]1O[C@H]1C/C=C\CCCCCCCC(=O)OC [Vernolic Acid (C18-methyl ester), (12,13)-epoxy-cis-9-octadecenoic acid methyl ester]
Percentage of Worm Death (C. elegans [1]; 0.003% emulsion, 1 hr): 20%
Percentage of Worm Death (C. elegans [1]; 0.003% emulsion, 6 hr): 20%
Percentage of Worm Death (C. elegans [1]; 0.003% emulsion, 24 hr): 20%
Percentage of Worm Death (C. elegans [1]; 0.1% emulsion, 1 hr): 65%
Percentage of Worm Death (C. elegans [1]; 0.1% emulsion, 6 hr): 65%
Percentage of Worm Death (C. elegans [1]; 0.1% emulsion, 24 hr): 75%
M. javanica (% not viable) (M. javanica [2]): 90%
M. incognita (% not viable) (M. incognita [3]): 100%
Nematicidal activity (in words) [4]: significant nematicidal activity
% Worm Death (24 hr) (C. elegans [5]; 0.001% solution): 30%
% Worm Death (24 hr) (C. elegans [5]; 0.01% solution): 50%
% Worm Death (24 hr) (C. elegans [5]; 0.1% solution): 80%
% Worm Death (24 hr) (P. trichosuri; 0.01% solution): ˜90%
% Worm Death (24 hr) (P. trichosuri; 0.1% solution): ˜95%
% Worm Death (24 hr) (M. incognita [6]; 0.01% solution): 73%
% Worm Death (24 hr) (M. incognita [6]; 0.1% solution): 98%
% Worm Death (48 hr) (M. javanica [7]; 0.01% solution): 60%
% Worm Death (48 hr) (M. javanica [7]; 0.1% solution): 90%
% Worm Death (24 hr) (H. glycines; 0.001% solution): 18%
% Worm Death (24 hr) (H. glycines; 0.01% solution): 20%
% Worm Death (24 hr) (H. glycines; 0.1% solution): 30%
% Worm Death (24 hr) (P. scribneri; 0.01% solution): <20%
% Worm Death (24 hr) (P. scribneri; 0.1% solution): <20%
percentage of non-motile microfilaria (B. malayi; 24 hrs post-inoculation, 0.0008%): 0%
percentage of non-motile microfilaria (B. malayi; 24 hrs post-inoculation, 0.0016%): 0%
percentage of non-motile microfilaria (B. malayi; 24 hrs post-inoculation, 0.003%): 0%
percentage of non-motile microfilaria (B. malayi; 24 hrs post-inoculation, 0.005%): 66%
percentage of non-motile microfilaria (B. malayi; 24 hrs post-inoculation, 0.0067%): 100%
percentage of non-motile microfilaria (B. malayi; 24 hrs post-inoculation, 0.008%): 100%
percentage of non-motile microfilaria (B. malayi; 48 hrs post-inoculation, 0.0008%): 0%
percentage of non-motile microfilaria (B. malayi; 48 hrs post-inoculation, 0.0016%): 0%
percentage of non-motile microfilaria (B. malayi; 48 hrs post-inoculation, 0.003%): 5%
percentage of non-motile microfilaria (B. malayi; 48 hrs post-inoculation, 0.005%): 100%
percentage of non-motile microfilaria (B. malayi; 48 hrs post-inoculation, 0.0067%): 100%
percentage of non-motile microfilaria (B. malayi; 48 hrs post-inoculation, 0.008%): 100%
